From ChEMBL document CHEMBL3826968, “Glycine Transporter 1 Inhibitors and the Promise of a New Schizophrenia Therapy” (ACS Med Chem Lett, 2016)

The compounds below were run against T1, Sodium- and chloride-dependent glycine transporter 1 (Homo sapiens, UniProt P48067) (assay: Displacement of [3H](R)-NPTS or [3H]N-methyl-SSR504734 from recombinant human glycine transporter type-1 isoform C expressed in CHO cell membrane incubated for 1 hr by liquid scintillation spectrometry).
T1 sequence (P48067 whole entry): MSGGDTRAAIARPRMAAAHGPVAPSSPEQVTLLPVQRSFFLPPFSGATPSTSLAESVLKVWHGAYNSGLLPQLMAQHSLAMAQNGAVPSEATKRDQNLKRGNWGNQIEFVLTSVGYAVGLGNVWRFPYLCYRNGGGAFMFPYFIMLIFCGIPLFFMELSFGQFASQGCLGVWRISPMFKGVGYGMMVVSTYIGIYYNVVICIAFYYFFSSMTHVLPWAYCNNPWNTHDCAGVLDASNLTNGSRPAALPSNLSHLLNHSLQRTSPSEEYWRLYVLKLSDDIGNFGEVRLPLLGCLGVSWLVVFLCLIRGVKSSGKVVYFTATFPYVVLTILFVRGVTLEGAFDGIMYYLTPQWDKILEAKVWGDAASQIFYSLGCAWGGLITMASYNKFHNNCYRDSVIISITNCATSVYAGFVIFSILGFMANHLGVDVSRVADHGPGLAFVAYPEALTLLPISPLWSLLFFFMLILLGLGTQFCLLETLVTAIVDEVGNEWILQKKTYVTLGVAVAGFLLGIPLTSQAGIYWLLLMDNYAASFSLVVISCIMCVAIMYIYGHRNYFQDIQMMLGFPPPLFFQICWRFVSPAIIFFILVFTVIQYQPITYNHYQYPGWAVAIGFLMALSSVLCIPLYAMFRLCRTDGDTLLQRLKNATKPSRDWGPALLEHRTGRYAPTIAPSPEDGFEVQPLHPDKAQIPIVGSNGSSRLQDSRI
Type: cell membranes

Ki [µM] | Compound
≤ 10 | Cn1cc(S(=O)(=O)N2CC(c3ccc(F)cc3)C(c3cccc(C(F)(F)F)c3)=N2)nn1 (stereo not drawn)
≤ 1 | Cn1cnc(S(=O)(=O)N2CC(c3ccc(Cl)cc3)C(c3ccccc3)=N2)c1 (stereo not drawn)
≥ 10 | Cn1cc(S(=O)(=O)N2CC(c3ccccc3)C(c3ccccn3)=N2)cn1 (stereo not drawn)
